From patent US10334850B2, “Recombinant microorganism expressing avermectin analogue and use thereof” (Zhejiang Hisun Pharmaceutical Co., Ltd., priority 2014, dated 2019)

System: pine wood nematodes
Assay: Toxicity assay against pine wood nematodes (immersion method)
Format: in vivo
Details: 24 h
Method: 3. Activity assay of tenvermectins against pine wood nematodes: The indoor activities of sixteen-membered macrolide compounds such as tenvermectins, avermectins, ivermectin, milbemycins, emamectin benzoate were assayed, wherein pine wood nematodes were used as the test insects. The aim was to compare the difference in activities of such medicaments on pine wood nematodes.
Test medicaments: five kinds of medicaments, i.e. 0.5% avermectins emulsifiable concentrate, 0.5% tenvermectins emulsifiable concentrate, 0.5% ivermectin emulsifiable concentrate, 2% milbemycins emulsifiable concentrate, 2.5% emamectin benzoate microemulsion.
Test Method: The immersion method was adopted. Five mass concentrations 2, 5, 10, 20, 50 mg/L were set for each of the medicaments, and each concentration was repeated for three times. The experimental results were subjected to statistics after 24 h (see Table 5).

| Substance | Mortality at different concentrations (mg/L, %) (2 mg/L) | Mortality at different concentrations (mg/L, %) (5 mg/L) | Mortality at different concentrations (mg/L, %) (10 mg/L) | Mortality at different concentrations (mg/L, %) (20 mg/L) | Mortality at different concentrations (mg/L, %) (50 mg/L) |
| --- | --- | --- | --- | --- | --- |
| ivermectin | 18.52% | 42.55% | 57.47% | 58.33% | 78.94% |
| emamectin benzoate | 48.27% | 61.68% | 67.44% | 75% | 86.67% |
